Where a SMILES comes first, the peptide text is derived from it. The star is where a group is joined. X1 = CC1(C)C(=CC=C2CCCC(C=CC3=[N+](CCCCCC(=O)O)c4ccccc4C3(C)C)=C2*)N(CCCCCC(=O)O)c2ccccc21
Target: T1, recombinant human caspase-3 (Homo sapiens, UniProt P42574)
T1 construct: purchased Sigma-Aldrich Chemical Co
T1 sequence (P42574 29-175 limits assumed): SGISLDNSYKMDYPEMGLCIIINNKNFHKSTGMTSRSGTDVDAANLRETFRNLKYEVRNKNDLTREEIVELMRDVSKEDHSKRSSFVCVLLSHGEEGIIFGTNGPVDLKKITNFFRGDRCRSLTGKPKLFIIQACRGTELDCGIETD
T1 sequence (P42574 176-277 limits assumed): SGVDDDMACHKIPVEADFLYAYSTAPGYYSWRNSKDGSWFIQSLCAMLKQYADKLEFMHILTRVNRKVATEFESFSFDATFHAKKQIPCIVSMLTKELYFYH
Assay: Caspase-3 cleavage (HPLC) and induced self-assembly (TEM) in HEPES buffer
Assay type: biochemical
Details: caspase-3 2 h, substrate-to-enzyme ratio 1 μM/U, HEPES buffer 50 mM pH 7.4, TEM
Protocol: Fig. 2 The structure conformations and self-assembly properties of molecule 1 in aqueous solution. a Illustration of the self-assembly strategy of molecule 1. b CD spectra of molecule 1 and molecule 4 in deionized water at a concentration of 1 μM. c FTIR spectra of molecule 1 in a monomeric state and molecule 4 in a fibrous assembled state. The arrows identify the typical characteristic peaks of the antiparallel β-sheet structure. d TEM image of self-assembled β-sheet nanofibrils of molecule 1 after treatment with caspase-3 (substrate-to-enzyme ratio of 1 μM/U) in HEPES buffer (50 mM, pH 7.4) for 2 h. The manual measurement of the nanofibril diameter is shown in the zoomed image, and the computational simulation result for the length of molecule 4 is inserted. e WAXS and computational simulation results of the β-sheet self-assemblies (molecule 4) identified the β-sheet and laminate spacing of the structures. f The concentration-dependent CD spectra of molecule 4 in the concentration range of 0.5–10 μM. g Time-dependent TEM images of molecule 4 from 10 min to 12 h for monitoring the growth process of the nanofibrous structures. h Temperature-dependent CD intensity changes at 220 nm of molecules 1 and 4 with a heating rate of 1 °C/min and an equilibrium period of 30 s to reveal the self-assembly mechanisms. Scale bar: 100 nm […]

CC[C@H](C)[C@H](NC(=O)[C@@H]1CCCN1C(=O)[C@@H](NC(=O)[C@H](C)N)C(C)C)C(=O)N[C@@H](C)C(=O)N[C@@H](CCC(N)=O)C(=O)N[C@@H](CCCCN)C(=O)N[C@@H](CC(=O)O)C(=O)N[C@@H](CCC(=O)O)C(=O)N[C@H](C(=O)N[C@@H](CC(=O)O)C(=O)N[C@@H](CCCCN)C(=O)N[C@@H](CC(C)C)C(=O)N[C@H](C(=O)N[C@@H](Cc1ccccc1)C(=O)N[C@@H](Cc1ccccc1)C(=O)N[C@@H](C)C(=O)N[C@@H](CCC(=O)O)C(=O)N[C@@H](CSC1=C(C=CC2=[N+](CCCCCC(=O)O)c3ccccc3C2(C)C)CCCC1=CC=C1N(CCCCCC(=O)O)c2ccccc2C1(C)C)C(=O)NCC(=O)O)C(C)C)C(C)C [molecule 1] (H-AVPIAQKDEVDKLVFFAEC(X1)G-OH)
diameter of nanofibrils after incubation with caspase-3: approximately 5.8 ± 0.6 nm

— paper PMC6813295, “A tumour-selective cascade activatable self-detained system for drug delivery and cancer imaging” (Nature Communications, 2019)
